Data published in a melting point compilation (Tetko et al.; mined from patent text by program, amines drawn as free bases though some values may be those of a salt).

| Structure (SMILES) | melting point [°C] |
| --- | --- |
| CCCCCCCCCC(O)Cc1ccc(O)c(O)c1 (stereo unspecified) | 56 to 58 |
| CC(C)(n1cncn1)C(O)(Cc1nc[nH]n1)c1ccc(C(F)(F)F)cc1F (stereo unspecified) | 174 to 175 |
| O=C1CC(c2cccs2)=Nc2ccc(I)cc2N1 | > 260 |
| Cn1c([N+](=O)[O-])cnc1C1=NO[C@@H]2CCCCCC[C@@H]12 (relative stereo) | 106 to 109 |
| CCc1c(C(=O)OC)c(C(F)(F)F)nc(C(F)(F)F)c1C(=O)OC | 45 to 47 |
| CCCCOC(=O)C(NC(=O)OC(C)(C)C)c1c[nH]c2ccccc12 (stereo unspecified) | 127 to 128 |
| CN(CCc1ccccn1)C(=O)CCSc1cc(Cl)c(O)c(Cl)c1 | 120 to 123 |
| N#Cc1ccc(OCc2ccc(CCc3ccncc3)cc2)cc1 | 139 to 140 |
| CS(=O)(=O)c1ccc(-c2cnn3c(O)ncnc23)cc1 | > 300 |
| CCCCSc1c2c(=O)n(C)c(=O)n(CC(C)C)c2cn1Cc1cccc2ccccc12 | 92 to 94 |
| CC(C)(C)OC(=O)NCc1ccccc1N | 94 to 95 |
| CCOCCOc1ccc(-c2nc(=O)c3ccccc3s2)cn1 | 93.6 to 94.9 |
| CCc1c(-c2ccccc2)nn(C)c1-c1ccccc1 | 80 to 81 |
| CCC1(C)CCCNC1=O (stereo unspecified) | 67 to 69 |
| CCOC(=O)/C(=N\O[C@H]1CC[C@H](Cl)CC1)c1csc(N)n1 | 155 |
| COc1ccc(CN2CCc3nc(-c4ccccc4)c4c(c3C2)CO[C@@H](C)C4)cc1 | 110 |
| O=C(O)CCc1cccc(-c2nc(=O)c3ccc(Cl)cc3s2)n1 | 224 to 225 |
| COC(=O)Cn1ccnc1Cc1ccccc1 | 70.8 |
| CN1C(=O)c2cccnc2N(CC(=O)OC(C)(C)C)c2ccccc21 | 64 to 65 |
| O=C(O)c1cccc(-c2ccc3c(c2)C(Nc2ccc(Cl)cc2Cl)CO3)c1 (stereo unspecified) | 164 to 165 |
| COc1cc2c(Nc3cc(O)c(Cl)cc3F)c(C#N)cnc2c(OC)c1OC | 223 to 225 |

| Structure (SMILES) | melting point [°C] |
| --- | --- |
| Oc1cnccc1CCCOc1cccnc1Oc1cccc(F)c1 | 68 to 70 |
| COc1ccc(-c2cc(Nc3ccc(NS(C)(=O)=O)cc3)nc(C)n2)cc1OC | 180 to 185 |
| COc1ccc(CCc2nccn3c(Br)cc(Br)c23)cc1 | 75 to 76 |
| Oc1ccc(Cl)cc1-n1c(=S)[nH]c2cc(C(F)(F)F)ccc21 | 248 to 250 |
| CC(O)CCCCCCCCc1ccc(O)c(O)c1 (stereo unspecified) | 43 to 46 |
| CC(=O)c1ccccc1-c1cccc(-n2cnc(-c3nc(C)no3)c2)c1 | 144 to 146 |
| CC(C)N1C(=O)NC(c2ccccc2)c2cc3c(cc21)OCO3 (stereo unspecified) | 165 to 168 |
| COCCc1nc2c(N)nc3ccccc3c2n1CCC(=O)N1CCOCC1 | 125 to 126 |
| CC(C)=CCCC(C)CCOCC(=O)c1cc(C(C)C)c(O)c(C(C)C)c1 (stereo unspecified) | 37 to 39 |
| CCOC(=O)C1=C(COCc2cccnc2)NC(COCc2cccnc2)=C(C(=O)OCC)C1c1ccccc1[N+](=O)[O-] | 142 to 145 |
| O=C1CCC(N2Cc3c(OCc4ccc(Cl)cc4)cccc3C2=O)C(=O)N1 (stereo unspecified) | 224 to 226 |
| N#CC(Cc1c[nH]cn1)(c1ccc(Cl)cc1)c1ccc(Cl)cc1 | 152 to 153 |
| COc1ccc(CNC(=O)C23CC4CC(CC(C4)C2)C3)cc1OC | 120 to 122 |
| CC(C)(C)C(O)(COc1ccccc1)c1cccnc1 (stereo unspecified) | 89 to 90.5 |
| CCCc1nc(C(C)(C)O)c(C(=O)OCc2oc(=O)oc2C)n1Cc1ccc(-c2ccccc2C(=O)O)cc1 | 90 to 93 |
| N#Cc1sc2ccccc2c1Cl | 124 to 125 |
| CN=C(NC)Nc1ccccc1-c1ccccc1 | 101 to 102 |
| CN1C(=O)C(c2ccccc2)NC(=O)/C1=C/c1c[nH]c2ccccc12 (stereo unspecified) | 120 to 123 |
| COc1ccc(-c2nn(Cc3ccccc3)c(=O)cc2-c2ccc(Cl)cc2)cc1 | 165 to 167 |
| F[C@H]1C[C@H](COc2ccccc2Cl)N(c2ncnc3[nH]cnc23)C1 | 143 to 144 |
